Reference: patent US6723702B2, “Use of relaxin treat diseases related to vasoconstriction” (RAS Medical, Inc., priority 2000, dated 2004)

Legend:
conscious rats = test: Acute infusion of L-NAME during chronic infusion of purified porcine RLX; type: in vivo, rat; details: RLX 4 μg/hour s.c. day 5
Description: At least 7 days after the implantation of vascular and bladder catheters, osmotic minipumps containing either porcine RLX (4 μg/hour) or vehicle (Ringer's solution) were implanted in intact, female rats (n=7 and 6 rats, respectively). Renal function and MAP were measured on day 5 of relaxin infusion (three 30-minute urine and midpoint blood collections). Next, an infusion of L-NAME (2 μg/minute, a substrate competitive inhibitor of NO synthase) was administered intravenously (i.v.) by infusion pump (Model 200, KD Scientific, Boston, Mass.). Four 1-hour urine collections with midpoint blood samples were collected for the assessment of GFR, ERPF, and ERVR during the L-NAME administration. Identical procedures were performed on additional animals chronically administered porcine RLX (n=5) or vehicle (n=5), except that ANG II (3 ng/minute) was infused rather than L-NAME. Finally, another four, age-matched control rats were administered Ringer's solution instead of either L-NAME or ANG II on day 5 of porcine RLX infusion.
MAP, GFR, ERPF, and ERVR were measured at time zero (baseline), and at 60, 120, 180, and 240 minutes after administering L-NAME and either RLX or vehicle alone. Values represent the mean±SEM. L-NAME (Nω-nitro-L-arginine methyl ester) was infused at 2 μg/minute intravenously, and relaxin was administered at 4 μg/hour by osmotic minipump subcutaneously. There were 7 and 6 rats, respectively, in the RLX and vehicle groups. An asterisk denotes p<0.05; the symbol H denotes p<0.05 for RLX vs. vehicle.

intact, female rats = test: Chronic infusion of purified porcine RLX or rhRLX: MAP and renal function in conscious rats; type: in vivo, rat; details: chronic infusion 4 μg/hour
From the text: Long-Evans female rats aged 10-14 weeks were purchased from Harlan Sprague-Dawley (Frederick, Md.). They were fed PROLAB RMH 2000 diet containing 0.48% sodium (PME Feeds Inc., St. Louis, Mo.) and provided water ad libitum. To prepare the rats for experimental procedures, they were trained for several hours in a Plexiglas restraining cage (Braintree Scientific Co., Braintree, Mass.) on at least five different occasions before surgical intervention. These cages afforded sufficient space for grooming of the face and front paws while preventing the rat from turning around. Thus, accurate timed-urine collections and blood samplings were made possible from the chronically implanted bladder and vascular catheters, respectively. Rats failing to habituate to the cage were eliminated from the study (<1%). All animal procedures were approved by the Institutional Animal Care and Use Committee of the Magee-Womens Research Institute.
The details of the surgical procedures have been previously described. See, e.g., Conrad (1984) Kidney Int. 26:24-29; and Danielson and Conrad (1995) J. Clin. Invest. 96:482-490. […] The bladder catheter, a silastic-covered stainless steel cannula, was sewn into the urinary bladder with a purse-string suture and exteriorized through the ventral abdominal wall. This catheter was then plugged allowing the animal to urinate through the urethra while in her home cage. In the ovariectomized and sham ovariectomized animals, the ovaries were first ligated and then excised, or briefly manipulated, respectively, via a small incision made in the lateral abdominal wall immediately after the insertion of vascular and bladder catheters. All surgeries were conducted using aseptic technique. At least a 7-day recovery period was allowed before experimentation.
For chronic infusion of relaxin, an osmotic minipump was inserted subcutaneously (s.c.) in the back of the animal under ether anesthesia. After shaving and cleaning the skin with alcohol and betadine, a small incision was made and the minipump containing either recombinant human relaxin (rhRLX), purified porcine relaxin (RLX), or vehicle was inserted. Then the incision was closed with surgical staples. The model 2001 and 2ML1 osmotic minipumps (Alza Co., Palo Alto, Calif.) were used for the purified porcine RLX and rhRLX, respectively.
At the beginning of each experiment, immediately after opening the arterial catheter and before infusion of fluids, 100 μl of blood was collected into a heparinized tube. […] The hematocrit was also routinely determined on these midpoint blood samples. […] MAP, GFR, ERPF, and ERVR were assessed on days 2 and 5 of the infusion, and 5-12 days after depletion of the 7-day minipump. […] Circulating relaxin concentrations of 20-40 ng/mL have been measured in rats of 12-14 gestational days. […]

[1] = test system: bFGF protein expression in human cardiac cells; test: Immunocytochemistry of human cardiac cell cultures; type: cell-based; details: 10 and 100 ng/ml for 24 hours
Description: Human cardiac cell cultures untreated or treated for 24 hr with 1, 10, and 100 ng/ml of relaxin were analyzed for VEGF and bFGF protein expression by immunocytochemistry. Human cardiac cells were seeded in two chamber slides at 150,000 cells per chamber 24 hours prior to treatment with relaxin. Cells were incubated without or with 10 or 100 ng/ml relaxin for 24 hours. Cells were washed with PBS and fixed with sequential treatment of 4% paraformaldehyde for 10 minutes, ice-cold acetone for 1 minute and ice-cold methanol for 1 minute before air-drying. Slides were then processed as outlined for rat heart sections with the additional use of monoclonal antibodies against vimentin or desmin (Santa Cruz Biotechnology). Cells being analyzed for bFGF expression were stained using the protocol outlined by Vector Laboratories “Vectastain Elite ABC” kit (Vector Labs.), the only deviation from the standard protocol being a 1 hour instead of a 30 minutes primary antibody incubation step. Untreated cells stained diffusely and uniformly for bFGF. Nearly 100% of all cells stained more intensely for bFGF expression following treatment with 10 and 100 ng/ml of relaxin for 24 hours.

[2] = L-NAME 2 μg/minute i.v., 60 min
[3] = L-NAME 2 μg/minute i.v., 120 min
[4] = L-NAME 2 μg/minute i.v., 180 min
[5] = L-NAME 2 μg/minute i.v., 240 min
[6] = days 2 and 5, rhRLX significant only at day 5

Question: For “Porcine RLX: lyophilized, purified porcine relaxin (Sherwood and O'Byrne 1974), dissolved in Ringer's solution”, which ERPF (conscious rats; Baseline before L-NAME) is on record?
Answer: Its ERPF is 10245.

Question: And the ERVR (conscious rats; Baseline before L-NAME)?
Answer: Its ERVR is 6.96.

Question: What about the GFR (conscious rats; Baseline before L-NAME) of the same substance?
Answer: The GFR was 3050.

Question: What about the “MAP (mean arterial pressure)” value (conscious rats; Baseline before L-NAME) of the same substance?
Answer: The value was 120.

Question: What about the ERPF (conscious rats; [2]) of the same substance?
Answer: Its ERPF is 7520.

Question: And the ERVR (conscious rats; [2])?
Answer: Its ERVR is 11.00.

Question: What about the GFR (conscious rats; [2]) of the same substance?
Answer: The GFR was 2776.

Question: And the “MAP (mean arterial pressure)” value (conscious rats; [2])?
Answer: Its value is 135.

Question: What about the ERPF (conscious rats; [3]) of the same substance?
Answer: The ERPF was 7030.

Question: And the ERVR (conscious rats; [3])?
Answer: Its ERVR is 11.87.

Question: What about the GFR (conscious rats; [3]) of the same substance?
Answer: Its GFR is 2653.

Question: What about the “MAP (mean arterial pressure)” value (conscious rats; [3]) of the same substance?
Answer: The value was 136.

Question: And the ERPF (conscious rats; [4])?
Answer: Its ERPF is 6530.

Question: What about the ERVR (conscious rats; [4]) of the same substance?
Answer: Its ERVR is 12.92.

Question: What about the GFR (conscious rats; [4]) of the same substance?
Answer: Its GFR is 2498.

Question: What about the “MAP (mean arterial pressure)” value (conscious rats; [4]) of the same substance?
Answer: The value was 136.

Question: And the ERPF (conscious rats; [5])?
Answer: The ERPF was 5973.

Question: What about the ERVR (conscious rats; [5]) of the same substance?
Answer: The ERVR was 14.13.

Question: What about the GFR (conscious rats; [5]) of the same substance?
Answer: Its GFR is 2392.

Question: And the “MAP (mean arterial pressure)” value (conscious rats; [5])?
Answer: Its value is 139.

Question: And the “effect on MAP” value (intact, female rats; days 2 and 5 (FIG. 1A))?
Answer: The value was “did not significantly change”.

Question: And the “effect on ERPF” value (intact, female rats; [6])?
Answer: Its value is “marked increase”.

Question: What about the “effect on ERVR” value (intact, female rats; [6]) of the same substance?
Answer: Its value is “reciprocal reduction”.

Question: And the “effect on GFR” value (intact, female rats; [6])?
Answer: Its value is “marked increase”.

Question: “rhRLX: recombinant human relaxin, identical in amino acid sequence to the product of the human H2 gene; A chain of 24, B chain of 29 amino acids” was tested. Which “cells stained more intensely for bFGF expression” value [1] did it give?
Answer: Its value is roughly 100%.
